Laboratory results reported in publication PMC5372560, “D-Amino Acid Position Influences the Anticancer Activity of Galaxamide Analogs: An Apoptotic Mechanism Study” (International Journal of Molecular Sciences, 2017).
≈ marks a conversion by molar mass, not a printed value. Where “and” joins values, the source holds several entries; their conditions need not be identical. Identical values can stand only once. Where a SMILES comes first, the peptide text is derived from it. [ ]: non-standard residue; d: D form. NMeL = CN[C@@H](CC(C)C)C(=O)O

What was measured:
[1] = tested on: human cervical carcinoma cell line (Hela); type: cell-based; settings: 48 h
Description: (§1) Human hepatocellular cells (HepG2), human breast cancer cells (MCF-7), human breast adenocarcinoma cells (MDA-MB-435) and a human cervical carcinoma cell line (Hela) were selected as our in vitro cancerous cell models. The cells were all cultured in DMEM medium containing 10% fetal bovine serum, 1% penicillin-streptomycin and antifungal agent, incubated at 37 °C with 5% CO2 and 90% humidity. The cytotoxicity of Galaxamide and its analogs on the four cancerous cells was evaluated using the MTT method. […] After that, 20 µL MTT reagents were added to each well and incubated between 3–5 h according to the nature of cells; the color intensity of the cell culture at 570 nm was measured using a microplate spectrophotometer. Finally, the cell viability was calculated accordingly. Note: […]

[2] = tested on: human breast adenocarcinoma cells (MDA-MB-435); type: cell-based; settings: 48 h
Description: as §1

[3] = tested on: human breast cancer cells (MCF-7); type: cell-based; settings: 48 h
Description: as §1

[4] = tested on: human hepatocellular cells (HepG2); type: cell-based; settings: 48 h
Description: as §1

HepG2 cells [5] = experiment: Cell cycle analysis by propidium iodide staining, flow cytometry; type: cell-based, human; settings: 48 h, PI staining
Description: In particular, HepG2 cells were exposed to Galaxamide, Analog-4 and Analog-6 with concentrations of 0, 5, 10 and 15 µg/mL for 48 h. Generally, treatment with Galaxamide, Analog-4 and -6 all caused changes in the cell cycle of HepG2 cells, mainly in the sub-G1 stage, where a subdiploid peak was detected, indicating their apoptotic effects on HepG2 cells.
(§2) HepG2 cells were seeded in 6-well tissue culture plates at a concentration of 1 × 10^5 cells/well. Galaxamide and its analogs with a concentration of 0, 5, 10 and 15 µg/mL were added to the cell cultures and incubated for 48 h. After that, 5 µL Annexin V-fluorescein isothiocyanate (FITC) and 5 µL of PI were added for dual staining of the cells and analyzed by FACScan flow cytometry. Cell cycle and apoptotic cells were determined by counting the FITC-positive and PI-negative fractions.

[6] = tested on: human hepatocellular carcinoma HepG2; settings: in vitro, HepG2 cell line; cited from earlier work
Source text: (§3) In our initial work, a novel cyclic-pentapeptide named Galaxamide was isolated from a marine algae Galaxaura filamentosa collected from Xisha Island in the South China Sea. Galaxamide is a cyclic-pentapeptide composed of five L-leucines, including two N-methylated ones. N-methylated amino acid is an important component endowing the anticancer potential to the cyclopeptides.

[7] = tested on: human renal cell carcinoma GRC-1; settings: in vitro, GRC-1 cell line; cited from earlier work
Source text: as §3

HepG2 cells [8] = experiment: Annexin V-FITC / PI dual staining, flow cytometry (apoptosis); type: cell-based, human; settings: 48 h
Description: To further study the apoptotic mechanism of Analog-6, the Annexin V-fluorescein isothiocyanate (FITC) and propidium iodide (PI) dual staining method was used. Briefly, HepG2 cells were treated with 0, 5, 10 and 15 µg/mL Analog-6 for 48 h. Then, cells were washed several times with PBS and stained by dual staining of two fluorescent dyes, Annexin V-FITC and PI, and analyzed by flow cytometry. Results are shown in Figure 5, where HepG2 cells exposed to Galaxamide were used as the control. Note that Q1, Q2, Q3 and Q4 in the figure represent four quadrants of necrotic cells, late apoptotic cells, normal cells and early apoptotic cells, respectively.
as §2

HepG2 cells [9] = experiment: Hoechst 33342 staining, nuclear morphology; type: cell-based, human; settings: HepG2, increasing concentration up to 15 µg/mL, 48 h, fluorescence microscope
Description: We then investigated the effect of Galaxamide and Analog-6 on the cell morphology and nuclear integrity. HepG2 cells were treated with an increasing concentration of Analog-6 for 48 h and then stained by Hoechst 33342 (a DNA fluorescent dye). The effect of Galaxamide on HepG2 cells was used as a control. Noting that Hoechst 33342 is a DNA fluorescent dye, the fluorescently-stained DNA presents a blue color under the fluorescence microscope.
HepG2 cells were seeded in 6-well tissue culture plates at a concentration of 1 × 10^5 cells/well. Galaxamide and its analogs with a concentration of 0, 5, 10 and 15 µg/mL were added to the cell cultures and incubated for 48 h. After that, cells were fixed with 3.7% of paraformaldehyde for 10 min and washed three times with PBS. Then, Hoechst 33342 was added for cell staining, then visualized using a fluorescent microscope.

[10] = tested on: human normal liver cell line L02; settings: cited from earlier work
Source text: In our previous work, we synthesized several Galaxamide analogs and tested their cytotoxicity on a normal cell line (human normal liver cell line L02) and a broad range of cancerous cell lines in vitro.

cleaved caspase-3 = experiment: Western blot, cleaved caspase-3 expression; type: cell-based, human; settings: HepG2, 15 µg/mL, 48 h
Description: (§4) There are two major pathways involved in cells apoptosis: the mitochondria-mediated intrinsic pathway and the death receptor-mediated extrinsic pathway. To elucidate the possible mechanism of the apoptotic effects of Analog-6, Western blot experiments were performed. HepG2 cells were treated with 0, 5, 10 and 15 µg/mL Analog-6 for 48 h, and then expression of cleaved caspase-3, caspase-9 and poly(ADP-ribose) polymerase (PARP) was quantified, results are shown in Figure 6.
(§5) Target proteins were first extracted using Radio-Immunoprecipitation Assay (RIPA) buffer and quantified by the Bradford method. Then, proteins were transferred to a polyvinylidene difluoride (PVDF) membrane, and the membrane was blocked with 5% non-fat milk for 1 h and incubated with a primary antibody (Cell Signaling Technology, Danvers, MA, USA, rabbit monoclonal antibody, 1:1000) at 4 °C overnight. After that, the membrane was washed two times with TBST buffer (Tris-buffered saline with 0.1% Tween-20) and incubated with a secondary antibody (goat-anti-rabbit horseradish peroxidase (HRP)-conjugated 1:15,000) for 1 h under room temperature. Finally, the membrane was washed three times with TBST, and the intensity of the specific immunoreactive bands was detected by enhanced chemiluminescence.

[11] = tested on: poly(ADP-ribose) polymerase (PARP); experiment: Western blot, cleaved PARP expression; type: cell-based, human; settings: HepG2, 15 µg/mL, 48 h
Description: as §4, §5

caspase-9 = experiment: Western blot, caspase-9 expression; type: cell-based, human; settings: HepG2, 15 µg/mL, 48 h
Description: as §4, §5

Compound	IC50 (µg/mL) in Different Cell Lines, Hela [1]	IC50 (µg/mL) in Different Cell Lines, MDA-MB-435 [2]	IC50 (µg/mL) in Different Cell Lines, MCF-7 [3]	IC50 (µg/mL) in Different Cell Lines, HepG2 [4]	G0/G1 cells (HepG2 cells [5]; HepG2, 5 µg/mL)	G2/M cells (HepG2 cells [5]; HepG2, 5 µg/mL)	S cells (HepG2 cells [5]; HepG2, 5 µg/mL)	Sub-G1 cells (HepG2 cells [5]; HepG2, 5 µg/mL)	G0/G1 cells (HepG2 cells [5]; HepG2, 10 µg/mL)	G2/M cells (HepG2 cells [5]; HepG2, 10 µg/mL)	S cells (HepG2 cells [5]; HepG2, 10 µg/mL)	Sub-G1 cells (HepG2 cells [5]; HepG2, 10 µg/mL)	G0/G1 cells (HepG2 cells [5]; HepG2, 15 µg/mL)	G2/M cells (HepG2 cells [5]; HepG2, 15 µg/mL)	S cells (HepG2 cells [5]; HepG2, 15 µg/mL)	Sub-G1 cells (HepG2 cells [5]; HepG2, 15 µg/mL)	further results
CC(C)C[C@@H]1NC(=O)[C@H](CC(C)C)N(C)C(=O)[C@H](CC(C)C)NC(=O)[C@H](CC(C)C)N(C)C(=O)[C@H](Cc2ccccc2)NC1=O [Analog-1, Cyclo(Me-Leu-Leu-Phe-Me-Leu-Leu)]	6.85 ± 0.26 µg/mL (≈ 10.9 µM)	9.76 ± 0.18 µg/mL (≈ 15.5 µM)	13.03 ± 0.33 µg/mL (≈ 20.8 µM)	5.85 ± 0.13 µg/mL (≈ 9.32 µM)	–	–	–	–	–	–	–	–	–	–	–	–	–
CC(C)C[C@@H]1NC(=O)[C@H](CC(C)C)N(C)C(=O)[C@@H](CC(C)C)NC(=O)[C@H](CC(C)C)N(C)C(=O)[C@H](Cc2ccccc2)NC1=O [Analog-4, Cyclo(Me-Leu-Leu-Phe-Me-Leu-D-Leu)]	4.2 ± 0.32 µg/mL (≈ 6.69 µM)	7.67 ± 0.18 µg/mL (≈ 12.2 µM)	8.62 ± 0.26 µg/mL (≈ 13.7 µM)	7.2 ± 0.15 µg/mL (≈ 11.5 µM)	70.5%	9.33%	20.2%	1.78%	64.2%	12.9%	22.9%	7.1%	67.6%	5.91%	26.5%	35.5%	–
CC(C)C[C@@H]1NC(=O)[C@H](CC(C)C)N(C)C(=O)[C@H](CC(C)C)NC(=O)[C@H](CC(C)C)N(C)C(=O)[C@H](CC(C)C)NC1=O [Galaxamide] (cyclo(LL[NMeL]L[NMeL]))	–	–	–	–	71.2%	9.18%	19.6%	1.30%	73.7%	9.03%	17.2%	8.81%	70.8%	9.46%	19.8%	13.1%	IC50, antiproliferative activity, HepG2 [6]: 4.63 µg/mL (≈ 7.8 µM); IC50, antiproliferative activity, GRC-1 [7]: 4.26 µg/mL (≈ 7.17 µM); Q4, early apoptotic cells (HepG2 cells [8]; HepG2, 5 µg/mL): 1.8%; Q4, early apoptotic cells (HepG2 cells [8]; HepG2, 10 µg/mL): 10.6%; Q4, early apoptotic cells (HepG2 cells [8]; HepG2, 15 µg/mL): 12.1%; nuclei morphology after Hoechst 33342 staining (HepG2 cells [9]): slight shrinking of nuclei; IC50, cytotoxicity on normal L02 [10]: > 40 µg/mL
CC(C)C[C@@H]1NC(=O)[C@H](CC(C)C)N(C)C(=O)[C@H](CC(C)C)NC(=O)[C@@H](CC(C)C)N(C)C(=O)[C@H](Cc2ccccc2)NC1=O [Analog-3, Cyclo(Me-Leu-Leu-Phe-Me-D-Leu-Leu)]	4.39 ± 0.26 µg/mL (≈ 6.99 µM)	12.6 ± 0.29 µg/mL (≈ 20.1 µM)	18.16 ± 0.33 µg/mL (≈ 28.9 µM)	7.71 ± 0.11 µg/mL (≈ 12.3 µM)	–	–	–	–	–	–	–	–	–	–	–	–	–
CC(C)C[C@@H]1NC(=O)[C@H](CC(C)C)N(C)C(=O)[C@H](CC(C)C)NC(=O)[C@H](CC(C)C)N(C)C(=O)[C@@H](Cc2ccccc2)NC1=O [Analog-2, Cyclo(Me-Leu-Leu-D-Phe-Me-Leu-Leu)]	4.95 ± 0.18 µg/mL (≈ 7.88 µM)	9.5 ± 0.32 µg/mL (≈ 15.1 µM)	9.64 ± 0.27 µg/mL (≈ 15.4 µM)	4.56 ± 0.22 µg/mL (≈ 7.26 µM)	–	–	–	–	–	–	–	–	–	–	–	–	–
CC(C)C[C@@H]1NC(=O)[C@@H](CC(C)C)N(C)C(=O)[C@H](CC(C)C)NC(=O)[C@H](CC(C)C)N(C)C(=O)[C@H](Cc2ccccc2)NC1=O [Analog-5, Cyclo(Me-D-Leu-Leu-Phe-Me-Leu-Leu]	7.4 ± 0.33 µg/mL (≈ 11.8 µM)	20.43 ± 0.23 µg/mL (≈ 32.5 µM)	15.21 ± 0.29 µg/mL (≈ 24.2 µM)	10.72 ± 0.32 µg/mL (≈ 17.1 µM)	–	–	–	–	–	–	–	–	–	–	–	–	–
CC(C)C[C@@H]1NC(=O)[C@H](CC(C)C)N(C)C(=O)[C@H](Cc2ccccc2)NC(=O)[C@@H](CC(C)C)NC(=O)[C@H](CC(C)C)N(C)C1=O [Analog-6, Cyclo(Me-Leu-D-Leu-Phe-Me-Leu-Leu)]	3.42 ± 0.25 µg/mL (≈ 5.45 µM)	6.76 ± 0.22 µg/mL (≈ 10.8 µM)	8.15 ± 0.18 µg/mL (≈ 13 µM)	4.1 ± 0.20 µg/mL (≈ 6.53 µM)	61.5%	21.6%	16.9%	3.30%	56.8%	14.4%	28.8%	5.36%	88.6%	4.22%	7.18%	67.9% and 68%	increased fold of cleaved caspase-3 expression (cleaved caspase-3): 3.4 fold; increased fold of PARP expression [11]: 6.8 fold; Q4, early apoptotic cells (HepG2 cells [8]; HepG2, 5 µg/mL): 7.3%; Q4, early apoptotic cells (HepG2 cells [8]; HepG2, 10 µg/mL): 16.9%; Q4, early apoptotic cells (HepG2 cells [8]; HepG2, 15 µg/mL): 49.4% and ~50%; nuclei morphology after Hoechst 33342 staining (HepG2 cells [9]): severely damaged; increased fold of caspase-9 expression (caspase-9): 3.3 fold
